Where two headings read alike, the source gives them in different places. Each block holds one compound with its values, some of them ahead of it.
Assays:
5-HT1A receptor = 5-HT1A receptor (Homo sapiens (Human), UniProt P08908); test: Affinity for human 5-HT1A receptor ([3H]8-OH-DPAT binding, HEK-293 cell homogenates);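 note: Filter-retained radioactivity counted by scintillation, non-specific binding defined with 10 µM 8-OH-DPAT, Ki derived from percent inhibition of specific radioligand binding versus control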
Procedure: The non-specific binding value was determined by incubating the same mixture in the presence of 10 μM 8-OH-DPAT, which was used as the standard reference compound and tested in each experiment at several concentrations to obtain a competition curve.
Following the incubation, the samples were filtered rapidly under vacuum through glass fiber filter (GF/B, Packard) presoaked with 0.3% PEI and rinsed several times with ice-cold 50 mM Tris-HCl using a 96-sample cell harvester (Unifilter, Packard). The filters were dried and the retained radioactivity was measured in a scintillation counter (Topcount, Packard) using a scintillation cocktail (Microscint 0, Packard). The experimental results were expressed as a percent inhibition of the control radioligand specific binding, and Ki was the inhibition constant.

serotonin transporter = serotonin transporter (Rattus norvegicus (Rat), UniProt P31652); test: Inhibitory effect on [3H]5-HT uptake in rat synaptosome; format: biochemical; details: rat brain synaptosomes, 37° C., 15 minutes, 0.1 μCi [3H]5-HT
Procedure: The synaptosomes (150 μg) prepared from the rat brain were incubated at 37° C. for 15 minutes with 0.1 μCi [^3H]5-HT in the absence or presence of the test compound or the reference compound in a buffer solution containing 106.2 mM NaCl, 4.5 mM KCl, 2.25 mM MgSO4, 1.08 mM NaH2PO4, 22.5 mM NaHCO3, 9.9 mM glucose, 9 μM EGTA and 45 μM ascorbic acid (pH 7.4).
Inhibition of serotonin transporter in rat synaptosome was measured by the concentrations of [^3H]5-HT.

dopamine D2S receptor = dopamine D2S receptor (Homo sapiens (Human), UniProt P14416); test: Affinity for human dopamine D2S receptor ([3H]methyl-spiperone binding); details: 0.3 nM [3H]methyl-spiperone, cell membrane homogenates, 22° C., 60 minutes
Procedure: Cell membrane homogenates (24 μg protein) were incubated at 22° C. for 60 minutes with 0.3 nM [3H]methyl-spiperone in the absence or presence of the test compound in a buffer solution containing 50 mM Tris-HCl (pH 7.4), 120 mM NaCl, 5 mM KCl, 5 mM MgCl2 and 1 mM EDTA.
The non-specific binding value was determined by incubating the same mixture in the presence of 10 μM (+)butaclamol.
Following the incubation, the samples were filtered rapidly under vacuum through glass fiber filter (GF/B, Packard) presoaked with 0.3% PEI and rinsed several times with ice-cold 50 mM Tris-HCl using a 96-sample cell harvester (Unifilter, Packard). The filters were dried and the retained radioactivity was measured in a scintillation counter (Topcount, Packard) using a scintillation cocktail (Microscint 0, Packard).
The experimental results were expressed as a percent inhibition of the control radioligand specific binding, and Ki was the inhibition constant. The standard reference compound was (+)butaclamol, which was tested in each experiment at several concentrations to obtain a competition curve from which its IC50 was calculated, and then Ki value was calculated by ChengPrusoff equation.

[1] = read-out: Ki, binding affinity for 5-HT1A receptor, 0.3 nM [3H]8-OH-DPAT, human HEK-293 cell homogenates, 22° C., 60 minutes

serotonin transporter, sequence (P31652 whole entry): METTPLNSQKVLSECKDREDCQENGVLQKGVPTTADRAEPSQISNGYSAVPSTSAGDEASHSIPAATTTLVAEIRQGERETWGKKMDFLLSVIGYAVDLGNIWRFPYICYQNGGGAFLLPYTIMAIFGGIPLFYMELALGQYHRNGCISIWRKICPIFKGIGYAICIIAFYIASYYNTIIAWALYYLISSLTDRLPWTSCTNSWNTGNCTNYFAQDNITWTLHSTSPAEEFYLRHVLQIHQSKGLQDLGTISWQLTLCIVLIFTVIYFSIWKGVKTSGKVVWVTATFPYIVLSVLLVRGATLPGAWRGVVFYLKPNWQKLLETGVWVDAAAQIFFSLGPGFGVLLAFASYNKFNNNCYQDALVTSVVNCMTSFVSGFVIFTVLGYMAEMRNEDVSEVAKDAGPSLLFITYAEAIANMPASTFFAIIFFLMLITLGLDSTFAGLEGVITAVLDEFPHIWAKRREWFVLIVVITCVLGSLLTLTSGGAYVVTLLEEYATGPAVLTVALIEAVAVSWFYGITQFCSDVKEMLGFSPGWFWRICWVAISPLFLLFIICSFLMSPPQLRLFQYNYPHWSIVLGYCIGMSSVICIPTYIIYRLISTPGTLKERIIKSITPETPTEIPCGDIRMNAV
5-HT1A receptor, sequence (P08908 whole entry): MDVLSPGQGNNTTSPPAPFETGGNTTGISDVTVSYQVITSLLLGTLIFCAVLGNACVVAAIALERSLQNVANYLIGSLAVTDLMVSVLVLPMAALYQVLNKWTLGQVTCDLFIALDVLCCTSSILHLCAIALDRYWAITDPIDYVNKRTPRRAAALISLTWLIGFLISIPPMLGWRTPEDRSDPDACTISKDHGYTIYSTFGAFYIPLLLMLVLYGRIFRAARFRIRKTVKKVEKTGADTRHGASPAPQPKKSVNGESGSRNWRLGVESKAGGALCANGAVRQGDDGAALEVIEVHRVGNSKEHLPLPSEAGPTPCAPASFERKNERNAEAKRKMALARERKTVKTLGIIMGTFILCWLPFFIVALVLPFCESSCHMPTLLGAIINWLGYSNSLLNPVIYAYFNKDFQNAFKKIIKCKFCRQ
dopamine D2S receptor, sequence (P14416 other isoform, or with tags, fused parts or gaps): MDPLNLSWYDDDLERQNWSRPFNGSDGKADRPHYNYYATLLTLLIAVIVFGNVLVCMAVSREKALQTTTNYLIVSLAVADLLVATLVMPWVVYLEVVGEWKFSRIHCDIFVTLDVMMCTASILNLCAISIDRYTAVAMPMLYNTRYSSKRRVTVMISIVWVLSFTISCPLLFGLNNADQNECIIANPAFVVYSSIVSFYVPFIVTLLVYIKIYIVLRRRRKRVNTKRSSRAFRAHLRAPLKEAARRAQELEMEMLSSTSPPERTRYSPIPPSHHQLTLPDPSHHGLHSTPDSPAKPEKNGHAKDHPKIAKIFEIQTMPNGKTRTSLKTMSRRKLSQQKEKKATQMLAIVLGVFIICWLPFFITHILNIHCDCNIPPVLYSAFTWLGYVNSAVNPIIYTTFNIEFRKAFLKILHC

- Ki (5-HT1A receptor; [1]): 3.3 nM
SMILES: COc1cc(OC)nc(N2CCN(CCCCc3c[nH]c4ccccc34)CC2)n1 [Example 1, 3-(4-(4-(4,6-Dimethoxypyrimidin-2-yl)piperazin-1-yl)butyl)-1H-indole]

- Ki (5-HT1A receptor; [1]): 1.4 nM
SMILES: COc1ccc2[nH]cc(CCCCN3CCN(c4nc(OC)cc(OC)n4)CC3)c2c1 [Example 2, 3-(4-(4-(4,6-Dimethoxypyrimidin-2-yl)piperazin-1-yl)butyl)-5-methoxy-1H-indole]

- Ki (5-HT1A receptor; [1]): 1.1 nM
SMILES: COc1cc(OC)nc(N2CCN(CCCCc3c[nH]c4ccc(Cl)cc34)CC2)n1 [Example 3, 5-Chloro-3-(4-(4-(4,6-dimethoxypyrimidin-2-yl)piperazin-1-yl)butyl)-1H-indole]

SMILES: COc1cc(OC)nc(N2CCN(CCCCc3c[nH]c4ccc(F)cc34)CC2)n1 [Example 4, 3-(4-(4-(4,6-Dimethoxypyrimidin-2-yl)piperazin-1-yl)butyl)-5-fluoro-1H-indole]
- Ki (5-HT1A receptor; [1]): 2.8 nM
- IC50 (serotonin transporter): 6.4 nM
- Ki (dopamine D2S receptor): 110 nM

SMILES: COc1cc(OC)nc(N2CCN(CCCCc3c[nH]c4ccc(C#N)cc34)CC2)n1 [Example 5, 3-(4-(4-(4,6-Dimethoxypyrimidin-2-yl)piperazin-1-yl)butyl)-1H-indole-5-carbonitrile]
- Ki (5-HT1A receptor; [1]): 2.3 nM
- IC50 (serotonin transporter): 11 nM

SMILES: COc1cc(OC)nc(N2CCN(CCCc3c[nH]c4ccccc34)CC2)n1 [Example 6, 3-(3-(4-(4,6-Dimethoxypyrimidin-2-yl)piperazin-1-yl)propyl)-1H-indole]
- Ki (5-HT1A receptor; [1]): 4.8 nM
- IC50 (serotonin transporter): 24 nM

- Ki (5-HT1A receptor; [1]): 0.19 nM
SMILES: COc1ccc2[nH]cc(CCCN3CCN(c4nc(OC)cc(OC)n4)CC3)c2c1 [Example 7, 3-(3-(4-(4,6-Dimethoxypyrimidin-2-yl)piperazin-1-yl)propyl)-5-methoxy-1H-indole]

SMILES: COc1cc(OC)nc(N2CCN(CCCc3c[nH]c4ccc(Cl)cc34)CC2)n1 [Example 8, 5-Chloro-3-(3-(4-(4,6-dimethoxypyrimidin-2-yl)piperazin-1-yl)propyl)-1H-indole]
- Ki (5-HT1A receptor; [1]): 2 nM
- IC50 (serotonin transporter): 81 nM

SMILES: COc1cc(OC)nc(N2CCN(CCCc3c[nH]c4ccc(F)cc34)CC2)n1 [Example 9, 3-(3-(4-(4,6-Dimethoxypyrimidin-2-yl)piperazin-1-yl)propyl)-5-fluoro-1H-indole]
- Ki (5-HT1A receptor; [1]): 3.4 nM
- IC50 (serotonin transporter): 4.4 nM

SMILES: COc1cc(OC)nc(N2CCN(CCCc3c[nH]c4ccc(C#N)cc34)CC2)n1 [Example 10, 3-(3-(4-(4,6-Dimethoxypyrimidin-2-yl)piperazin-1-yl)propyl)-1H-indole-5-carbonitrile]
- Ki (5-HT1A receptor; [1]): 1.3 nM
- IC50 (serotonin transporter): 3.6 nM
- Ki (dopamine D2S receptor): 200 nM

SMILES: Cc1cc(C)nc(N2CCN(CCCCc3c[nH]c4ccccc34)CC2)n1 [Example 11, 3-(4-(4-(4,6-Dimethylpyrimidin-2-yl)piperazin-1-yl)butyl)-1H-indole]
- Ki (5-HT1A receptor; [1]): 1.1 nM
- IC50 (serotonin transporter): 82 nM

- Ki (5-HT1A receptor; [1]): 1.1 nM
SMILES: COc1ccc2[nH]cc(CCCCN3CCN(c4nc(C)cc(C)n4)CC3)c2c1 [Example 12, 3-(4-(4-(4,6-Dimethylpyrimidin-2-yl)piperazin-1-yl)butyl)-5-methoxy-1H-indole]

- Ki (5-HT1A receptor; [1]): 1.8 nM
SMILES: Cc1cc(C)nc(N2CCN(CCCCc3c[nH]c4ccc(Cl)cc34)CC2)n1 [Example 13, 5-Chloro-3-(4-(4-(4,6-dimethylpyrimidin-2-yl)piperazin-1-yl)butyl)-1H-indole]

SMILES: Cc1cc(C)nc(N2CCN(CCCCc3c[nH]c4ccc(F)cc34)CC2)n1 [Example 14, 3-(4-(4-(4,6-Dimethylpyrimidin-2-yl)piperazin-1-yl)butyl)-5-fluoro-1H-indole]
- Ki (5-HT1A receptor; [1]): 1.7 nM
- IC50 (serotonin transporter): 12 nM

SMILES: Cc1cc(C)nc(N2CCN(CCCCc3c[nH]c4ccc(C#N)cc34)CC2)n1 [Example 15, 3-(4-(4-(4,6-Dimethylpyrimidin-2-yl)piperazin-1-yl)butyl)-1H-indole-5-carbonitrile]
- Ki (5-HT1A receptor; [1]): 2.9 nM
- IC50 (serotonin transporter): 6.9 nM

- Ki (5-HT1A receptor; [1]): 4.1 nM
- IC50 (serotonin transporter): 53 nM
- Ki (dopamine D2S receptor): 110 nM
SMILES: Cc1cc(C)nc(N2CCN(CCCc3c[nH]c4ccccc34)CC2)n1 [Example 16, 3-(3-(4-(4,6-Dimethylpyrimidin-2-yl)piperazin-1-yl)propyl)-1H-indole]

- Ki (5-HT1A receptor; [1]): 0.29 nM
SMILES: COc1ccc2[nH]cc(CCCN3CCN(c4nc(C)cc(C)n4)CC3)c2c1 [Example 17, 3-(3-(4-(4,6-Dimethylpyrimidin-2-yl)piperazin-1-yl)propyl)-5-methoxy-1H-indole]

SMILES: Cc1cc(C)nc(N2CCN(CCCc3c[nH]c4ccc(Cl)cc34)CC2)n1 [Example 18, 5-Chloro-3-(3-(4-(4,6-dimethylpyrimidin-2-yl)piperazin-1-yl)propyl)-1H-indole]
- Ki (5-HT1A receptor; [1]): 0.71 nM
- IC50 (serotonin transporter): 31 nM

SMILES: Cc1cc(C)nc(N2CCN(CCCc3c[nH]c4ccc(F)cc34)CC2)n1 [Example 19, 3-(3-(4-(4,6-Dimethylpyrimidin-2-yl)piperazin-1-yl)propyl)-5-fluoro-1H-indole]
- Ki (5-HT1A receptor; [1]): 1.4 nM
- IC50 (serotonin transporter): 7.9 nM

SMILES: Cc1cc(C)nc(N2CCN(CCCc3c[nH]c4ccc(C#N)cc34)CC2)n1 [Example 20, 3-(3-(4-(4,6-Dimethylpyrimidin-2-yl)piperazin-1-yl)propyl)-1H-indole-5-carbonitrile]
- Ki (5-HT1A receptor; [1]): 1.1 nM
- IC50 (serotonin transporter): 2 nM

SMILES: COc1cc(C)nc(N2CCN(CCCCc3c[nH]c4ccc(C#N)cc34)CC2)n1 [Example 21, 3-(4-(4-(4-Methoxy-6-methylpyrimidin-2-yl)piperazin-1-yl)butyl)-1H-indole-5-carbonitrile]
- Ki (5-HT1A receptor; [1]): 0.65 nM
- IC50 (serotonin transporter): 2.6 nM

SMILES: COc1cc(C)nc(N2CCN(CCCc3c[nH]c4ccc(C#N)cc34)CC2)n1 [Example 22, 3-(3-(4-(4-Methoxy-6-methylpyrimidin-2-yl)piperazin-1-yl)propyl)-1H-indole-5-carbonitrile]
- Ki (5-HT1A receptor): 1.5 nM
- IC50 (serotonin transporter): 2.7 nM

SMILES: N#Cc1ccnc(N2CCN(CCCCc3c[nH]c4ccc(F)cc34)CC2)n1 [Example 23, 2-(4-(4-(5-Fluoro-1H-indol-3-yl)butyl)piperazin-1-yl)pyrimidine-4-carbonitrile]
- Ki (5-HT1A receptor; [1]): 18 nM
- IC50 (serotonin transporter): 6.1 nM

SMILES: N#Cc1ccc2[nH]cc(CCCCN3CCN(c4nccc(C#N)n4)CC3)c2c1 [Example 24, 3-(4-(4-(4-Cyanopyrimidin-2-yl)piperazin-1-yl)butyl)-1H-indole-5-carbonitrile]
- Ki (5-HT1A receptor; [1]): 6.2 nM
- IC50 (serotonin transporter): 1.9 nM

SMILES: N#Cc1ccnc(N2CCN(CCCc3c[nH]c4ccc(F)cc34)CC2)n1 [Example 25, 2-(4-(3-(5-Fluoro-1H-indol-3-yl)propyl)piperazin-1-yl)pyrimidine-4-carbonitrile]
- Ki (5-HT1A receptor; [1]): 4 nM
- IC50 (serotonin transporter): 4.5 nM

SMILES: Fc1ccc2[nH]cc(CCCCN3CCN(c4nccc(C(F)(F)F)n4)CC3)c2c1 [Example 31, 5-Fluoro-3-(4-(4-(4-(trifluoromethyl)pyrimidin-2-yl)piperazin-1-yl)butyl)-1H-indole]
- Ki (5-HT1A receptor; [1]): 2 nM
- IC50 (serotonin transporter): 16 nM

SMILES: N#Cc1ccc2[nH]cc(CCCCN3CCN(c4nccc(C(F)(F)F)n4)CC3)c2c1 [Example 32, 3-(4-(4-(4-(Trifluoromethyl)pyrimidin-2-yl)piperazin-1-yl)butyl)-1H-indole-5-carbonitrile]
- Ki (5-HT1A receptor; [1]): 0.7 nM
- IC50 (serotonin transporter): 10 nM

SMILES: Fc1ccc2[nH]cc(CCCN3CCN(c4nccc(C(F)(F)F)n4)CC3)c2c1 [Example 33, 5-Fluoro-3-(3-(4-(4-(trifluoromethyl)pyrimidin-2-yl)piperazin-1-yl)propyl)-1H-indole]
- Ki (5-HT1A receptor; [1]): 1 nM
- IC50 (serotonin transporter): 11 nM

SMILES: N#Cc1ccc2[nH]cc(CCCN3CCN(c4nccc(C(F)(F)F)n4)CC3)c2c1 [Example 34, 3-(3-(4-(4-(Trifluoromethyl)pyrimidin-2-yl)piperazin-1-yl)propyl)-1H-indole-5-carbonitrile]
- Ki (5-HT1A receptor): 0.2 nM
- IC50 (serotonin transporter): 5.9 nM

SMILES: N#Cc1ccc2[nH]cc(CCCCN3CCN(c4ncc(F)cn4)CC3)c2c1 [Example 35, 3-(4-(4-(5-Fluoropyrimidin-2-yl)piperazin-1-yl)butyl)-1H-indole-5-carbonitrile]
- IC50 (serotonin transporter): 4.7 nM

- IC50 (serotonin transporter): 8.2 nM
SMILES: N#Cc1ccc2[nH]cc(CCCN3CCN(c4ncc(F)cn4)CC3)c2c1 [Example 36, 3-(3-(4-(5-Fluoropyrimidin-2-yl)piperazin-1-yl)propyl)-1H-indole-5-carbonitrile]

SMILES: CCOC(=O)c1sc(N2CCN(CCCCc3c[nH]c4ccc(C#N)cc34)CC2)nc1C [Example 39, Ethyl 2-(4-(4-(5-cyano-1H-indol-3-yl)butyl)piperazin-1-yl)-4-methylthiazole-5-carboxylate]
- Ki (5-HT1A receptor; [1]): 0.79 nM
- IC50 (serotonin transporter): 2.9 nM

SMILES: Cc1nc(N2CCN(CCCCc3c[nH]c4ccc(C#N)cc34)CC2)sc1C(N)=O [Example 43, 2-(4-(4-(5-Cyano-1H-indol-3-yl)butyl)piperazin-1-yl)-4-methylthiazole-5-carboxamide]
- Ki (5-HT1A receptor; [1]): 12 nM
- IC50 (serotonin transporter): 0.85 nM

SMILES: Cc1nc(N2CCN(CCCc3c[nH]c4ccc(C#N)cc34)CC2)sc1C#N [Example 48, 2-(4-(3-(5-Cyano-1H-indol-3-yl)propyl)piperazin-1-yl)-4-methylthiazole-5-carbonitrile]
- Ki (5-HT1A receptor; [1]): 2.6 nM
- IC50 (serotonin transporter): 7.7 nM

SMILES: CC1CN(c2nccc(C(N)=O)n2)CCN1CCCc1c[nH]c2ccc(C#N)cc12 (stereo not shown) [Example 49, 2-(4-(3-(5-Cyano-1H-indol-3-yl)propyl)-3-methylpiperazin-1-yl)pyrimidine-4-carboxamide]
- IC50 (serotonin transporter): 0.28 nM

SMILES: CC1CN(c2nccc(C(N)=O)n2)CCN1CCCCc1c[nH]c2ccc(C#N)cc12 (stereo not shown) [Example 50, 2-(4-(4-(5-Cyano-1H-indol-3-yl)butyl)-3-methylpiperazin-1-yl)pyrimidine-4-carboxamide]
- IC50 (serotonin transporter): 0.36 nM
